# Biological target: T1, untagged form of the CRD (human dectin-2) (Homo sapiens, UniProt Q6EIG7)
# T1 construct: gene CLEC6A; extended C-type carbohydrate-recognition domain starting at Leu-64, preceded by Met-Ala; untagged; one monomer in the asymmetric unit
# T1 sequence (Q6EIG7 64-209): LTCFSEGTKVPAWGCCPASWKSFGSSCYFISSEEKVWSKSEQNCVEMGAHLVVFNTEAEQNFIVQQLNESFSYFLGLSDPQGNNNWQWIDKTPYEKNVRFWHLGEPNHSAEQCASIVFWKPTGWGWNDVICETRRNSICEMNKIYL
# Test: X-ray crystallography, […] Å
# Format: binding
# Details: pH 8.0, Ca2+; primary Ca2+ site plus adjacent secondary site; D1 and D2 branches at 50% occupancy each
smiles,measurement,value
CC(=O)N[C@H]1[C@H](O[C@H]2[C@H](O)[C@@H](NC(C)=O)C(O)O[C@@H]2CO)O[C@H](CO)[C@@H](O[C@@H]2O[C@H](CO[C@H]3O[C@H](CO[C@H]4O[C@H](CO)[C@@H](O)[C@H](O)[C@@H]4O[C@H]4O[C@H](CO)[C@@H](O)[C@H](O)[C@@H]4O)[C@@H](O)[C@H](O[C@H]4O[C@H](CO)[C@@H](O)[C@H](O)[C@@H]4O[C@H]4O[C@H](CO)[C@@H](O)[C@H](O)[C@@H]4O)[C@@H]3O)[C@@H](O)[C@H](O[C@H]3O[C@H](CO)[C@@H](O)[C@H](O)[C@@H]3O[C@H]3O[C@H](CO)[C@@H](O)[C@H](O)[C@@H]3O[C@H]3O[C@H](CO)[C@@H](O)[C@H](O)[C@@H]3O)[C@@H]2O)[C@@H]1O (stereo partly shown) [Man9GlcNAc2],"X-ray crystallography, 2.4 Å",crystals obtained with the untagged form of the CRD in combination with Man9GlcNAc2 oligosaccharide

# From PMC5555199, “Mechanism of pathogen recognition by human dectin-2” (The Journal of Biological Chemistry, 2017)
